Source: paper PMC12677653, “Inhibition of Tumor Lipogenesis and Growth by Peptide‐Based Targeting of SREBP Activation” (Advanced Science, 2025)

How the values were obtained:
Format in all cases: cell-based, human
Hep3B cells [1] = assay: Triglyceride (TG) detection assay, Hep3B; conditions: peptide 25 μM, IGF1 100 ng/mL 24 h, n = 3
Protocol: Cells were harvested and processed for triglyceride (TG) quantification using the Amplex Red Triglyceride Assay Kit (Beyotime, Catalog No. S0129S) according to the manufacturer's instructions. Briefly, collect 1 million cells and add 200 µL of isopropanol. Centrifuge at 12 000 × g for 3–5 min at 4 °C, and collect the supernatant for subsequent analysis. Dilute the supernatant tenfold with assay buffer, and then add 50 µL of the diluted sample to a 96‐well black plate, add 2 µL of lipase, and mix thoroughly. Incubate at 37 °C for 20 min. Then, add 50 µL of the triglyceride detection working solution and mix well, incubate at 37 °C for 60 min in the dark. Set the excitation wavelength to 560 nm and the emission wavelength to 590 nm to measure the fluorescence intensity.
f) Intracellular triglyceride (TG) content was quantified in Hep3B cells pretreated with Insig1/2 loop 1 peptide (25 μM) and stimulated with IGF1 (100 ng ml⁻¹) for 24 h.

Hep3B cells [2] = assay: Cell proliferation, Hep3B; conditions: peptide 25 μM 1 h, IGF1 100 ng/mL 72 h, automated cell counting, n = 3
Protocol: Cells were seeded in 96‐well plates at a density of 5000 cells per well in 100 µL complete growth medium. Following a 24‐hour incubation period (37 °C, 5% CO2) to permit cell adherence, the culture medium was replaced with fresh low serum contained complete medium containing either Insig1/2 loop1 peptide (0–100 µM concentration range) or PBS. Cells were maintained under these conditions for 72 hours. After treatment, the culture medium was carefully aspirated, and cells were washed twice with 200 µL phosphate‐buffered saline (PBS, pH 7.4). Fixed was performed using 4% paraformaldehyde (100 µL/well) for 15 min at room temperature, followed by three PBS washes (200 µL/well) to remove residual fixative. 0.1% (w/v) crystal violet staining solution was prepared by dissolving crystal violet powder in 10% ethanol, followed by filtration through a 0.22 µm membrane. Each well received 80 µL of staining solution and was incubated for 15 min at room temperature, protected from light. […] Plates were agitated at 200 rpm for 10 min to ensure complete dissolution before measuring absorbance at 582 nm using a microplate reader. […]
g) Cell proliferation was assessed by automated cell counting after 72 h of IGF1 stimulation (100 ng ml⁻¹) in Hep3B cells pretreated with Insig1/2 loop 1 peptide (25 μM) for 1 h.

[3] = test system: Insig1 S207/Insig2 S151 phosphorylation; assay: Immunoblot of Insig1 S207/Insig2 S151 phosphorylation, Hep3B; conditions: Hep3B cells, peptide 7.5 or 15 μM 1 h before IGF1 100 ng/mL
Protocol: Cellular proteins were extracted using ice‐cold lysis buffer [50 mM Tris‐HCl (pH 7.5), 150 mM NaCl, 0.1% SDS, 1% Triton X‐100, 1 mM DTT, 0.5 mM EDTA] supplemented with protease inhibitor cocktail (Roche) and phosphatase inhibitors (Bimake). Following lysis, cell extracts were centrifuged at 13400 × g for 15 min at 4 °C to remove cellular debris. The clarified supernatants were then incubated with primary antibodies overnight at 4 °C with gentle rotation. For Flag‐tagged protein immunoprecipitation, Flag M2 magnetic beads (Sigma) were added to the lysate‐antibody mixture and incubated for an additional 4 h at 4 °C. The immunocomplexes were washed three times with lysis buffer under stringent conditions (5 min per wash with rotation). Finally, the precipitated proteins were eluted and analyzed by immunoblotting as previously described.^[ [35] ^]
e) Hep3B cells were pretreated with low (7.5 μM) or high (15 μM) concentrations of Insig1/2 loop 1 peptide for 1 h before IGF1 (100 ng ml⁻¹) stimulation.

RKKRRQRRRLYPCIDSHLGEPHKFKRE [Insig1/2 loop 1 peptide]
IGF1-induced increase in triglycerides (TGs) (Hep3B cells [1]): reduced | IGF1-induced increase in proliferation (Hep3B cells [2]): inhibited | Insig1 S207/Insig2 S151 phosphorylation [3]: markedly inhibited
